# Tested on: Dopamine (e.g., D2/D3)
# Experiment: Dopamine RO % by raclopride PET after LB-102, various dosage regimens (Example 3)
# Assay type: in vivo, human
# Details: for Dopamine RO % (Caudate + Putamen): group mean
# Procedure: Healthy subjects were dosed orally with LB102 of 50 mg QD (n=4), 75 mg QD (n=4), 100 mg QD (n=4), 50 mg SS (n=2), or 100 mg SS (n=2). Subjects were, on average, 33 years old. Subjects dosed QD were given a single dose on day 1 after which PET scans were obtained; and subjects dosed SS, i.e., steady state, were dosed once a day for 4 days and PET scans were obtained after dosing on Day 4.
# Dynamic […] raclopride PET scans were obtained 0 h, 2.5 h, 7.5 h, and 23.5 h after LB-102 administration for the 50 mg and 100 mg QD treatment groups and after LB-102 administration of Day 4 for the 50 mg SS and 100 mg SS treatment groups; and 0 h, 3.5 h, 23.5 h, and 47.5 h after LB-102 administration for the 75 mg QD treatment group. Dopamine % RO were calculated using the STRM method (https://pubmed.ncbi.nlm.nih.gov/9345505/, which is incorporated herein by reference) and the combined RO % (average of caudate and putamen RO %) are shown as squares FIGS. 5A (50 mg QD), 5B (75 mg QD), 5C (100 mg QD); and FIGS. 6A (50 mg SS Day 4) and 6B (100 mg SS Day 4); and summarized in Table 3-A below.
# Dynamic ^11C raclopride PET scan results for calculation of dopamine RO % were measured in caudate, putamen, thalamus, and temporal lobe of each subject tested, and are summarized in Tables 3-B to 3-F below.
# [1] = 50 mg QD, Subject 1, 2.5 h after LB-102 admin.
# [2] = 50 mg QD, Subject 1, 7.5 h after LB-102 admin.
# [3] = 50 mg QD, Subject 1, 23.5 h after LB-102 admin.
# [4] = 50 mg QD, Subject 2, 2.5 h after LB-102 admin.
# [5] = 50 mg QD, Subject 2, 7.5 h after LB-102 admin.
# [6] = 50 mg QD, Subject 2, 23.5 h after LB-102 admin.
# [7] = 50 mg QD, Subject 3, 7.5 h after LB-102 admin.
# [8] = 50 mg QD, Subject 3, 23.5 h after LB-102 admin.
# [9] = 50 mg QD, Subject 4, 2.5 h after LB-102 admin.
# [10] = 50 mg QD, Subject 4, 7.5 h after LB-102 admin.
# [11] = 50 mg QD, Subject 4, 23.5 h after LB-102 admin.
# [12] = 50 mg SS (Day 4), Subject 1, ~3 h after LB-102 admin.
# [13] = 50 mg SS (Day 4), Subject 1, ~8 h after LB-102 admin.
# [14] = 50 mg SS (Day 4), Subject 1, ~24 h after LB-102 admin.
# [15] = 50 mg SS (Day 4), Subject 2, ~3 h after LB-102 admin.
# [16] = 50 mg SS (Day 4), Subject 2, ~8 h after LB-102 admin.
# [17] = 50 mg SS (Day 4), Subject 2, ~24 h after LB-102 admin.
# [18] = 75 mg QD, Subject 1, 3.5 h after LB-102 admin.
# [19] = 75 mg QD, Subject 1, 23.5 h after LB-102 admin.
# [20] = 75 mg QD, Subject 1, 47.5 h after LB-102 admin.
# [21] = 75 mg QD, Subject 2, 3.5 h after LB-102 admin.
# [22] = 75 mg QD, Subject 2, 23.5 h after LB-102 admin.
# [23] = 75 mg QD, Subject 2, 47.5 h after LB-102 admin.
structure (smiles),measurement,setting,value
CCN1CCCC1CNC(=O)c1cc(S(=O)(=O)CC)c(NC)cc1OC (stereo not shown) [LB-102],Dopamine RO % (Caudate + Putamen),"50 mg QD, 0 h after LB-102 administration",0%
same,Dopamine RO % (Caudate + Putamen),"50 mg QD, 3 h after LB-102 administration",24%
same,Dopamine RO % (Caudate + Putamen),"50 mg QD, 8 h after LB-102 administration",38%
same,Dopamine RO % (Caudate + Putamen),"50 mg QD, 24 h after LB-102 administration",42%
same,Dopamine RO % Caudate,[1],26%
same,Dopamine RO % Putamen,[1],23%
same,Dopamine RO % Temporal lobe,[1],25%
same,Dopamine RO % Thalamus,[1],40%
same,Dopamine RO % Caudate,[2],52%
same,Dopamine RO % Putamen,[2],47%
same,Dopamine RO % Temporal lobe,[2],32%
same,Dopamine RO % Thalamus,[2],48%
same,Dopamine RO % Caudate,[3],58%
same,Dopamine RO % Putamen,[3],48%
same,Dopamine RO % Temporal lobe,[3],30%
same,Dopamine RO % Thalamus,[3],39%
same,Dopamine RO % Caudate,[4],28%
same,Dopamine RO % Putamen,[4],25%
same,Dopamine RO % Temporal lobe,[4],16%
same,Dopamine RO % Thalamus,[4],42%
same,Dopamine RO % Caudate,[5],42%
same,Dopamine RO % Putamen,[5],37%
same,Dopamine RO % Temporal lobe,[5],14%
same,Dopamine RO % Thalamus,[5],31%
same,Dopamine RO % Caudate,[6],45%
same,Dopamine RO % Putamen,[6],36%
same,Dopamine RO % Temporal lobe,[6],11%
same,Dopamine RO % Thalamus,[6],23%
same,Dopamine RO % Caudate,[7],36%
same,Dopamine RO % Putamen,[7],25%
same,Dopamine RO % Temporal lobe,[7],20%
same,Dopamine RO % Thalamus,[7],42%
same,Dopamine RO % Caudate,[8],53%
same,Dopamine RO % Putamen,[8],37%
same,Dopamine RO % Temporal lobe,[8],18%
same,Dopamine RO % Thalamus,[8],45%
same,Dopamine RO % Caudate,[9],23%
same,Dopamine RO % Putamen,[9],19%
same,Dopamine RO % Temporal lobe,[9],23%
same,Dopamine RO % Thalamus,[9],26%
same,Dopamine RO % Caudate,[10],43%
same,Dopamine RO % Putamen,[10],34%
same,Dopamine RO % Temporal lobe,[10],43%
same,Dopamine RO % Thalamus,[10],28%
same,Dopamine RO % Caudate,[11],45%
same,Dopamine RO % Putamen,[11],34%
same,Dopamine RO % Temporal lobe,[11],45%
same,Dopamine RO % Thalamus,[11],18%
same,Dopamine RO % Caudate,[12],75%
same,Dopamine RO % Putamen,[12],67%
same,Dopamine RO % Temporal lobe,[12],18%
same,Dopamine RO % Thalamus,[12],44%
same,Dopamine RO % Caudate,[13],78%
same,Dopamine RO % Putamen,[13],69%
same,Dopamine RO % Temporal lobe,[13],17%
same,Dopamine RO % Thalamus,[13],40%
same,Dopamine RO % Caudate,[14],75%
same,Dopamine RO % Putamen,[14],66%
same,Dopamine RO % Temporal lobe,[14],35%
same,Dopamine RO % Thalamus,[14],30%
same,Dopamine RO % Caudate,[15],74%
same,Dopamine RO % Putamen,[15],66%
same,Dopamine RO % Temporal lobe,[15],26%
same,Dopamine RO % Thalamus,[15],37%
same,Dopamine RO % Caudate,[16],76%
same,Dopamine RO % Putamen,[16],70%
same,Dopamine RO % Temporal lobe,[16],25%
same,Dopamine RO % Thalamus,[16],43%
same,Dopamine RO % Caudate,[17],73%
same,Dopamine RO % Putamen,[17],63%
same,Dopamine RO % Temporal lobe,[17],34%
same,Dopamine RO % Thalamus,[17],56%
same,Dopamine RO % (Caudate + Putamen),"50 mg SS (once a day for 4 days), 3 h after Day 4 administration",69%
same,Dopamine RO % (Caudate + Putamen),"50 mg SS (once a day for 4 days), 24 h after Day 4 administration",68%
same,"average dopamine (e.g., D2/D3) RO % in caudate, putamen, and thalamus","50 mg SS and 100 mg SS, at least from Day 4 since the treatment began",significantly stabilized
same,Dopamine RO % (Caudate + Putamen),"75 mg QD, 0 h after LB-102 administration",0%
same,Dopamine RO % (Caudate + Putamen),"75 mg QD, 3 h after LB-102 administration",33%
same,Dopamine RO % (Caudate + Putamen),"75 mg QD, 24 h after LB-102 administration",55%
same,Dopamine RO % Caudate,[18],27%
same,Dopamine RO % Putamen,[18],20%
same,Dopamine RO % Temporal lobe,[18],12%
same,Dopamine RO % Thalamus,[18],31%
same,Dopamine RO % Caudate,[19],70%
same,Dopamine RO % Putamen,[19],52%
same,Dopamine RO % Temporal lobe,[19],45%
same,Dopamine RO % Thalamus,[19],64%
same,Dopamine RO % Caudate,[20],53%
same,Dopamine RO % Putamen,[20],38%
same,Dopamine RO % Temporal lobe,[20],4%
same,Dopamine RO % Thalamus,[20],16%
same,Dopamine RO % Caudate,[21],53%
same,Dopamine RO % Putamen,[21],48%
same,Dopamine RO % Temporal lobe,[21],21%
same,Dopamine RO % Thalamus,[21],44%
same,Dopamine RO % Caudate,[22],58%
same,Dopamine RO % Putamen,[22],53%
same,Dopamine RO % Temporal lobe,[22],17%
same,Dopamine RO % Thalamus,[22],37%
same,Dopamine RO % Caudate,[23],45%
same,Dopamine RO % Putamen,[23],39%
same,Dopamine RO % Temporal lobe,[23],16%
same,Dopamine RO % Thalamus,[23],25%
same,Dopamine RO % Caudate,"75 mg QD, Subject 3, 3.5 h after LB-102 admin.",57%

# — patent US20240115547A1, “PSYCHOTROPIC AGENTS AND USES THEREOF” (LB PHARMACEUTICALS INC., priority 2021, published 2024)
